PMC6257762, “Isoquinolines from the Roots of Thalictrum flavum L. and Their Evaluation as Antiparasitic Compounds” (Molecules, 2010)
Several values for one entry are separate records, joined by “and”; a condition that tells them apart may be missing. Equal values may be shown once. Read-outs that look alike come from different tables or passages of the source.

Columns and labels:
MCR-5 cells = assay: Cytotoxicity towards MCR-5 (MRC5) cells; type: cell-based
Protocol: (§1) 3.3. Evaluations of cytotoxicity towards MCR-5 and KB cells
(§2) Cytotoxicities were evaluated at the ICSN-CNRS (Gif sur Yvette, France) on MRC5 and KB cells, in DMSO, at 10 and 1 µg/mL according to the procedure described by Moret et al..

[1] = test system: Plasmodium falciparum FcB1 Colombia; assay: In vitro P. falciparum culture antimalarial activity assay; type: cell-based
Protocol: 3.4. In vitro P. falciparum culture and activity assays
Antimalarial activity was evaluated on FcB1 Colombia strain of Plasmodium falciparum according to a previously described procedure.

Leishmania major = assay: In vitro leishmanicidal activity, promastigote susceptibility (Uptiblue micromethod); type: cell-based; conditions: promastigotes, MHOM/Il/81/BNI, 96 h at 26 °C
Protocol: 3.5. In vitro leishmanicidal activity
Leishmania major (MHOM/Il/81/BNI) was cultivated at 26 °C in a Schneider’s insect medium (Sigma, St Quentin Fallavier, France) supplemented with 15% foetal bovine serum (FBS) (Sigma), penicillin (100 IU/mL) and streptomycin (50 µg/mL). Exponentially growing cells were maintained at 26 °C. Promastigote susceptibility testing was performed with the Uptiblue® micromethod previously described. Briefly, 100 µL of a […] promastigotes/mL suspension were placed into wells of a 96-well microplate (Nunc®). The cultures were exposed for 96 h at 26 °C to the antileishmanial drugs at the concentrations used above, except for meglumine antimoniate for which dilutions were 0.2, 2 and 20 mg·mL^-1. Four h before measurement, 10 µL of Uptiblue® were added. The fluorescence was measured at 590 nm with an excitation at 550 nm.

KB cells = assay: Cytotoxicity towards KB cells; type: cell-based
Protocol: as §1, §2

[2] = set-up: method as in PMID 17109902; conditions: quaternary protoberberines, as expected; cited from earlier work
[3] = Plasmodium falciparum, FcB1 Colombia strain, read-out: Antimalarial IC50 Plasmodium falciparum FcB1 Colombia
[4] = Plasmodium falciparum, FCB1, read-out: Antimalarial IC50 Plasmodium falciparum FcB1 Colombia

For COc1cc2c(cc1OC)C(Cc1ccc(O)cc1)N(C)CC2 (single isomer, unassigned; (-)) [(-)-Armepavine 9, (-)-armepavine], the “Cytotoxicity MCR-5 cells 10 µg/mL” value (MCR-5 cells; human, 10 µg/mL) was 0 and the IC50 [1, 3] was 3.6 µg/mL and 11.4 µM.

For COc1cc2c3c(c1OC)Oc1c(OC)c(OC)cc4c1C(Cc1ccc(O)c(c1)Oc1ccc(cc1)CC2N(C)CC3)NCC4 (single isomer, unassigned; (-)) [(-)-Northalfoetidine 5, (-)-northalfoetidine], the “Cytotoxicity MCR-5 cells 10 µg/mL” value (MCR-5 cells; human, 10 µg/mL) was 6, the IC50 [1, 3] was 2.8 µg/mL and 4.5 µM and the IC50 (Leishmania major; Leishmania major) was 39 µg/mL and 63 µM.

In the case of COc1ccc2cc1Oc1ccc(cc1)CC1c3cc(OC)c(OC)c(c3CCN1C)Oc1c(OC)c(OC)cc3c1C(C2)NCC3 (single isomer, unassigned; (-)) [(-)-Northalidasine 2, (-)-northalidasine], the “Cytotoxicity MCR-5 cells 10 µg/mL” value (MCR-5 cells; human, 10 µg/mL) is reported as 0, the IC50 [1, 3] is reported as 3.4 µg/mL and 5.2 µM and the IC50 (Leishmania major; Leishmania major) is reported as 27 µg/mL and 41 µM.

In the case of COc1ccc2cc1Oc1ccc(cc1)CC1c3cc(OC)c(OC)c(c3CCN1C)Oc1c(O)c(OC)cc3c1C(C2)NCC3 (single isomer, unassigned; (-)) [(-)-Northalrugosidine 3, (-)-northalrugosidine], the “Cytotoxicity MCR-5 cells 1 µg/mL” value (MCR-5 cells; human, 1 µg/mL) is reported as 0, the “Cytotoxicity MCR-5 cells 10 µg/mL” value (MCR-5 cells; human, 10 µg/mL) is reported as 77 and the IC50 [1, 3] is reported as 2.7 µg/mL and 4.3 µM. The IC50 (Leishmania major; Leishmania major) was 30 µg/mL and 48 µM.

In the case of COc1cc2c3c(c1OC)Oc1c(OC)c(OC)cc4c1C(Cc1ccc(O)c(c1)Oc1ccc(cc1)CC2N(C)CC3)N(C)CC4 (single isomer, unassigned; (-)) [(-)-Thalfoetidine 4, (-)-thalfoetidine], the “Cytotoxicity MCR-5 cells 1 µg/mL” value (MCR-5 cells; human, 1 µg/mL) is reported as 0, the “Cytotoxicity MCR-5 cells 10 µg/mL” value (MCR-5 cells; human, 10 µg/mL) is reported as 62 and the IC50 [1, 3] is reported as 2.1 µg/mL and 3.3 µM. The IC50 (Leishmania major; Leishmania major) was 17 µg/mL and 27 µM.

With COc1cc2c3c(c1O)Oc1c4c(cc(OC)c1OC)C(Cc1ccc(cc1)Oc1cc(ccc1O)CC3N(C)CC2)N(C)CC4 (single isomer, unassigned; (-)) [(-)-Thaligosidine 6, (-)-thaligosidine] the “Cytotoxicity MCR-5 cells 1 µg/mL” value (MCR-5 cells; human, 1 µg/mL) was 0, the “Cytotoxicity MCR-5 cells 10 µg/mL” value (MCR-5 cells; human, 10 µg/mL) was 61 and the IC50 [1, 3] was 1.2 µg/mL and 2 µM. The IC50 (Leishmania major; Leishmania major) was 38 µg/mL and 61 µM.

For COc1cc2c(cc1OC)-c1c3c(c(OC)c4c1[C@H](C2)NCC4)OCO3 [(+)-O-Methylcassythine 7, (+)-O-methylcassythine], the “Cytotoxicity MCR-5 cells 1 µg/mL” value (MCR-5 cells; human, 1 µg/mL) was 4, the “Cytotoxicity MCR-5 cells 10 µg/mL” value (MCR-5 cells; human, 10 µg/mL) was 61 and the “Cytotoxicity KB cells 10 µg/mL” value (KB cells) was 49. The IC50 [1, 4] was 3.1 µg/mL and the IC50 [1, 3] was 8.6 µM.

In the case of COc1cc2c(cc1OC)-c1c(O)c(OC)c(OC)c3c1[C@H](C2)N(C)CC3 [(+)-Preocoteine 1, (+)-preocoteine], the “Cytotoxicity MCR-5 cells 10 µg/mL” value (MCR-5 cells; human, 10 µg/mL) is reported as 20, the “Cytotoxicity KB cells 10 µg/mL” value (KB cells) is reported as 23 and the IC50 [1, 4] is reported as 0.5 µg/mL. For the same compound, the IC50 [1, 3] was 1.3 µM and the IC50 (Leishmania major; Leishmania major) was > 100 µg/mL and > 100 µM.

In the case of COc1ccc2cc3[n+](cc2c1OC)CCc1cc2c(cc1-3)OCO2 [Berberine 11, berberine], the IC50 [1, 3] is listed as 0.4 µg/mL and 900 nM, the IC50 (Leishmania major; Leishmania major) is listed as 13 µg/mL and 35 µM and the “Cytotoxicity (in words)” value [2] is listed as “cytotoxic”.

For CCN(CC)CCCC(C)Nc1ccnc2cc(Cl)ccc12 (stereo not shown) [Chloroquine, reference compound], the IC50 [1, 4] was 0.06 µg/mL and 100 nM.

In the case of N=C(N)c1ccc(OCCCCCOc2ccc(C(=N)N)cc2)cc1 [Pentamidine, reference compound], the IC50 (Leishmania major; Leishmania major) is reported as 28 µg/mL and 82 µM.

For COc1cc2cc3[n+](cc2cc1OC)CCc1cc2c(cc1-3)OCO2 [Pseudoberberine 12, pseudoberberine], the IC50 [1, 3] is listed as 0.5 µg/mL and 1.3 µM, the IC50 (Leishmania major; Leishmania major) is listed as 3.5 µg/mL and 9 µM and the “Cytotoxicity (in words)” value [2] is listed as “cytotoxic”.

For COc1cc(CCN(C)C)c2ccc3cc4c(c5c(=O)oc1c2c35)OCO4 [Thaliglucinone 10, thaliglucinone], the “Cytotoxicity MCR-5 cells 1 µg/mL” value (MCR-5 cells; MCR-5 (MRC5) cells, compound at 1 µg/mL in DMSO) was 21, the “Cytotoxicity MCR-5 cells 10 µg/mL” value (MCR-5 cells; MCR-5 (MRC5) cells, compound at 10 µg/mL in DMSO) was 79 and the IC50 [1, 4] was 2.4 µg/mL. For the same compound, the IC50 [1, 3] was 6.7 µM and the IC50 (Leishmania major; Leishmania major) was 63 µg/mL and 173 µM.

In the case of (+)-thalicberine [(+)-Thalicberine 8], the “Cytotoxicity MCR-5 cells 10 µg/mL” value (MCR-5 cells) is reported as 29, the “Cytotoxicity KB cells 10 µg/mL” value (KB cells) is reported as 43 and the “Antimalarial IC50 Plasmodium falciparum FcB1 Colombia” value ([1]; FcB1 Colombia strain) is reported as 2.5 µg/mL. The IC50 ([1]; FcB1 Colombia strain, read-out: Antimalarial IC50 Plasmodium falciparum FcB1 Colombia) was 4.2 µM, the IC50 (Leishmania major) was 90 µM and the “Leishmanicidal IC50 Leishmania major” value (Leishmania major) was 55 µg/mL.
